pIC50: −log10 of the molar value. Like-named read-outs stand apart in the source and are kept apart here.
What was measured:
[1] = target: T1, ECAO (Escherichia coli, UniProt P46883); experiment: ECAO inhibitor test (spectroscopic amine oxidase activity assay, purified ECAO, substrate PEA); format: biochemical; conditions: for decrease of ECAO activity by aminoglycoside: aminoglycoside 1 mM (Fig 2C), sisomycin p = 0.06; for pIC50: purified ECAO
T1 construct: made in house; host or cells: E. coli; inferred from the overexpression strain E. coli (pKK233-3-tynA)
T1 sequence (P46883 31-757): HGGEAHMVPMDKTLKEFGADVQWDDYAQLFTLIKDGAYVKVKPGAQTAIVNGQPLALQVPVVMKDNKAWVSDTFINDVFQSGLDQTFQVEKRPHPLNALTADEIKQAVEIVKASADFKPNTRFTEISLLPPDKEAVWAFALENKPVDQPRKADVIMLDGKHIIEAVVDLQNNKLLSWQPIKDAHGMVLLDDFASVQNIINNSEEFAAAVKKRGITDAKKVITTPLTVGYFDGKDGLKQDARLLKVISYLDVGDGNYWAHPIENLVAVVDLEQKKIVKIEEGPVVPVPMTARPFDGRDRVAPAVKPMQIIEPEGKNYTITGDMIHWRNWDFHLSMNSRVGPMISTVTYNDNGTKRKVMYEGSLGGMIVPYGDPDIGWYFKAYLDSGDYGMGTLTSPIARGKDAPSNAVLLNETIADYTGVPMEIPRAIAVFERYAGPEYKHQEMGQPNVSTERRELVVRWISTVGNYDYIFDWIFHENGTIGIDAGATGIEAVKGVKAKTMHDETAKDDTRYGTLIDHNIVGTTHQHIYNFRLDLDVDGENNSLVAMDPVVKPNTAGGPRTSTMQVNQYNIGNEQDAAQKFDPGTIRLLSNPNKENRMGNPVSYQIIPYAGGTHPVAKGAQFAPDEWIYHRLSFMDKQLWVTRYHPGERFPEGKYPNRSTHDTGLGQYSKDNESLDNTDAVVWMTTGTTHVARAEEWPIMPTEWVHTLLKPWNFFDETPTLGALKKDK
Protocol: To determine the effect of different inhibitors on ECAO activity, we used purified ECAO protein and a spectroscopic amine oxidase activity assay, which is not as sensitive to additives as the Amplex Red assay. In short, 21 ng of ECAO protein was incubated with differing amounts of inhibitors in Krebs-Ringer phosphate glucose buffer for 20 min at 30°C. After incubation, we added substrate (0.5 mM PEA) and a mixture of 1 mM vanillic acid, 0.5 mM 4-aminopyridine, and 16 U of horseradish peroxidase, and measured the A492nm immediately and hourly thereafter.

[2] = test system: wt E. coli (tynA+); experiment: Growth inhibition assay in liquid medium, wt / tynA+ strains; format: cell-based, Escherichia coli; conditions: SC concentrations lower than 5–10 mM (S5 Fig)
Protocol: (§1) To assess the effect of inhibitors on bacterial growth, discs with different concentrations of SC were placed on LA plates freshly plated with either tynA+ E. coli (three different strains) or tynA- E. coli (five strains). The inhibition zones were measured the next day. For the growth inhibition assay in a liquid medium, the same strains were cultured in tryptic soy broth (TSB) medium for 14–16 h. Then, 10^3 cells were inoculated into TSB medium with different concentrations (0–100 mg/mL) of SC and cultured further at 37°C with shaking at 100 rpm until the following day. Then, 10 μL of bacterial mixture was plated on lactose medium plates, and the plates were incubated at 37°C for 14–16 h before counting the colonies.
(§2) The inhibition of growth by a selective hydrazine-based human amine oxidase inhibitor, BTT-2052 [30], and SC on tynA+ and tynA- strains was tested similarly in M9-lactose-PEA medium using inhibitor concentrations of 0–0.5 mM.

[3] = test system: ΔtynA strain; experiment: Growth inhibition assay in liquid medium, ΔtynA / tynA- strains; format: cell-based, Escherichia coli; conditions: liquid medium (S5 Fig)
Protocol: as §1, §2

[4] = test system: tynA+ E. coli and tynA- E. coli; experiment: Growth inhibition on LA plates (discs with SC); format: cell-based, Escherichia coli; conditions: data not shown
Protocol: as §1

[5] = target: T1, ECAO; experiment: ECAO activity with human granulocytes as sole substrate (Amplex Red, H2O2 production); format: biochemical; conditions: 30 nM ECAO, 200,000 granulocytes per well, 37°C, Cells + ECAO + SC, p = 0.004
Source text: To test if ECAO has a substrate on human granulocytes, we used purified recombinant protein ECAO, whose production and purification has been described. To collect human neutrophils, we extracted granulocytes from the fresh peripheral blood of healthy volunteers using Ficoll (GE Healthcare). We collected buffy coats according to standard procedure, lysed red blood cells with Pharm Lyse (BD Biosciences, Franklin Lakes, NJ, USA), washed with PBS, counted the cells, and used the cells immediately. The assay was conducted in 25 mM HEPES and 150 mM NaCl (pH 7.4), and we used 30 nM ECAO and 200,000 viable granulocytes per well. PEA was used as a positive control for the substrate, and the specific activity was determined using parallel wells with SC, as described above. The assay was conducted at 37°C. Three independent assays (different blood donors) were performed with duplicates.

[6] = target: T1, ECAO; parameters: method as in PMID 7765483; conditions: cited from earlier work
[7] = PEA, aminoglycoside concentrations 10 μM–10 mM, read-out: half maximal inhibitory concentration (IC50) of aminoglycosides on ECAO activity on PEA

| Molecule | decrease of ECAO activity by aminoglycoside [1] | effect on ECAO activity [6] | pIC50 [1, 7] | also measured |
| --- | --- | --- | --- | --- |
| Gentamycin | no effect | – | – | – |
| NNC(N)=O [SC, semicarbazide] | – | inhibited | – | pIC50 ([1]; 0.5 mM PEA, seven inhibitor concentrations 0.1–10 μM, 30°C, read-out: half maximal inhibitory concentration (IC50) on ECAO activity on PEA): 6.15; effect on growth in liquid rich media [2]: no significant effect; effect on growth of the ΔtynA strain [3]: no effect; effect on bacterial growth on LA plates ([4]; at 100 mg/mL): minimal; effect on bacterial growth on LA plates ([4]; under the concentration of 100 mg/mL): no effect; effect on H2O2 production by ECAO with granulocytes as only source of substrate [5]: inhibited |
| N[C@@H]1C[C@H]1c1ccccc1 [tranycypromine] | – | inhibited | – | – |
| CN[C@@H]1[C@@H](O)[C@@H](O[C@@H]2[C@@H](O)[C@H](O[C@H]3OC(CN)=CC[C@H]3N)[C@@H](N)C[C@H]2N)OC[C@]1(C)O [sisomycin] | 23–61% | – | – | – |
| NC[C@H]1O[C@H](O[C@H]2[C@H](O)[C@@H](O[C@H]3O[C@H](CO)[C@@H](O)[C@H](N)[C@H]3O)[C@H](N)C[C@@H]2N)[C@H](N)C[C@@H]1O [tobramycin] | 23–61% | – | 3.10 | – |
| NCC[C@H](O)C(=O)N[C@@H]1C[C@H](N)[C@@H](O[C@H]2O[C@H](CN)[C@@H](O)[C@H](O)[C@H]2O)[C@H](O)[C@H]1O[C@H]1O[C@H](CO)[C@@H](O)[C@H](N)[C@H]1O [amikacin] | 23–61% | – | 3.00 | – |
| NC[C@H]1O[C@H](O[C@H]2[C@H](O)[C@@H](O[C@H]3O[C@H](CO)[C@@H](O)[C@H](N)[C@H]3O)[C@H](N)C[C@@H]2N)[C@H](O)[C@@H](O)[C@@H]1O [kanamycin] | 23–61% | – | 2.42 | – |
| CC(C)NNC(=O)c1ccncc1 [iproniazid] | – | inhibited | – | – |
| NNCCc1ccccc1 [phenelzine] | – | inhibited | – | – |
| NO [hydroxylamine] | – | inhibited | – | – |
